{"source": "patent US11603356B2", "about": "“Amorphous form of a complement component C5a receptor” (CHEMOCENTRYX, INC., priority 2019, dated 2023)", "key": {"[1]": {"test": "Solubility in IV formulation saline/PEG400/Tween80", "assay_type": "physicochemical", "conditions": "saline/PEG400/Tween80 (88:10:1)", "procedure": "Intravenous (IV) formulations of a crystalline form of Compound 1 and the amorphous form of Compound 1 were prepared by contacting the amorphous of crystalline Compound 1 with saline/PEG400/Tween80 (88:10:1). The crystalline form of Compound 1 was prepared as described in Example 1, the amorphous form of Compound was prepared as described in Example 2, Method 1."}, "[2]": {"test": "In vivo rat PK study, oral aqueous liquid suspension formulation", "conditions": "oral 10 mg/kg", "procedure": "An in vivo rat PK study was conducted to compare the PK profile and bioavailability of crystalline form against amorphous form of Compound 1 in an aqueous liquid suspension formulation, which contained 0.5% w/v Hydroxypropyl Cellulose (Klucel GF grade) and 0.5% w/v Poloxamer F-68 (BASF Kolliphor P188). Each animal was orally administrated 10 mg/kg of Compound 1 at 5 mL/kg dosing volume (a dosing concentration of 2 mg/mL)."}, "[3]": {"test": "Kinetic solubility in 0.1 N HCl, FaSSGF and FeSSIF at 37° C.", "assay_type": "physicochemical", "procedure": "The in vitro solubility of a crystalline form of Compound 1 and the amorphous form of Compound 1 was tested.\nThe amorphous form was prepared as described in Example 2, Method 1, and the crystalline form of Compound 1 was prepared as described in Example 1.\nCrystalline and amorphous forms of Compound 1 were saturated in three different media: 0.1 N HCl solution, Fasted State Simulated Gastric Fluid (FaSSGF), and Fed State Simulated Intestinal Fluid (FeSSIF). The samples were shaken inside a 37° C. water bath at 40 rpm. The concentration of Compound 1 dissolved in these samples was measured by HPLC at four different time points (0.5, 1, 2 and 4 hours)."}, "[4]": {"conditions": "suspension in 0.5% w/v Klucel GF and 0.5% w/v Poloxamer F-68, 10 mg/kg"}}}
{"smiles": "Cc1ccc(NC(=O)[C@H]2CCCN(C(=O)c3c(C)cccc3F)[C@H]2c2ccc(NC3CCCC3)cc2)cc1C(F)(F)F", "note": "[Crystalline Compound 1, (2R,3S)-2-(4-(cyclopentylamino)phenyl)-1-(2-fluoro-6-methylbenzoyl)-N-(4-methyl-3-(trifluoromethyl)phenyl)piperidine-3-carboxamide]", "values": [{"measurement": "Solubility in IV Formulation", "setting": "[1]; 0.5 Hr.", "value": 15.2, "unit": "µg/mL"}, {"measurement": "Solubility in IV Formulation", "setting": "[1]; 1 Hr.", "value": 17.2, "unit": "µg/mL"}, {"measurement": "Solubility in IV Formulation", "setting": "[1]; 2 Hr.", "value": 20.5, "unit": "µg/mL"}, {"measurement": "Solubility in IV Formulation", "setting": "[1]; 4 Hr.", "value": 21.6, "unit": "µg/mL"}, {"measurement": "Solubility in IV Formulation", "setting": "[1]; 8 Hr.", "value": 22.0, "unit": "µg/mL"}, {"measurement": "Solubility in IV Formulation", "setting": "[1]; 24 Hr.", "value": 21.9, "unit": "µg/mL"}, {"measurement": "Solubility in IV Formulation", "setting": "[1]; 48 Hr.", "value": 21.9, "unit": "µg/mL"}, {"measurement": "Solubility in IV Formulation", "setting": "[1]; 96 Hr.", "value": 21.6, "unit": "µg/mL"}, {"measurement": "half-life", "setting": "[2]; in vivo, po, 10 mg/kg, suspension in 0.5% w/v Klucel GF and 0.5% w/v Poloxamer F-68", "value": 3.9, "unit": "h"}, {"measurement": "MRT", "setting": "[2]; in vivo, po, 10 mg/kg, suspension in 0.5% w/v Klucel GF and 0.5% w/v Poloxamer F-68, read-out: MRT", "value": 6, "unit": "h"}, {"measurement": "Tmax", "setting": "[2]; in vivo, po, 10 mg/kg, suspension in 0.5% w/v Klucel GF and 0.5% w/v Poloxamer F-68, read-out: Tmax", "value": 1.5, "unit": "h"}, {"measurement": "AUC0-t", "setting": "[2]; [4]", "value": 983, "unit": "ng·h/mL"}, {"measurement": "AUCinf", "setting": "[2]; [4]", "value": 996, "unit": "ng·h/mL"}, {"measurement": "Cmax", "setting": "[2]; [4]", "value": 129, "unit": "ng/mL"}, {"measurement": "CCX168 Solubility at 37° C.", "setting": "[3]; 0.1N HCl (pH 1.06), 0.5 Hr.", "value": "ND (ND = Not Detected)"}, {"measurement": "CCX168 Solubility at 37° C.", "setting": "[3]; 0.1N HCl (pH 1.06), 1 Hr.", "value": "ND (ND = Not Detected)"}, {"measurement": "CCX168 Solubility at 37° C.", "setting": "[3]; 0.1N HCl (pH 1.06), 2 Hr.", "value": "ND (ND = Not Detected)"}, {"measurement": "CCX168 Solubility at 37° C.", "setting": "[3]; 0.1N HCl (pH 1.06), 4 Hr.", "value": "ND (ND = Not Detected)"}, {"measurement": "CCX168 Solubility at 37° C.", "setting": "[3]; FaSSGF (pH 1.64), 0.5 Hr.", "value": "ND (ND = Not Detected)"}, {"measurement": "CCX168 Solubility at 37° C.", "setting": "[3]; FaSSGF (pH 1.64), 1 Hr.", "value": "ND (ND = Not Detected)"}, {"measurement": "solubility at 2 h", "setting": "[3]; Fasted State Simulated Gastric Fluid (FaSSGF), 37 °C, pH 1.64, fassgf or other biorelevant, thermodynamic from solid, FaSSGF (pH 1.64), 2 Hr., read-out: CCX168 Solubility at 37° C.", "value": "< 3.1", "unit": "µg/mL"}, {"measurement": "solubility at 4 h", "setting": "[3]; Fasted State Simulated Gastric Fluid (FaSSGF), 37 °C, pH 1.64, fassgf or other biorelevant, thermodynamic from solid, FaSSGF (pH 1.64), 4 Hr., read-out: CCX168 Solubility at 37° C.", "value": "< 3.1", "unit": "µg/mL"}, {"measurement": "CCX168 Solubility at 37° C.", "setting": "[3]; FeSSIF (pH 4.90), 1 Hr.", "value": "ND (ND = Not Detected)"}, {"measurement": "CCX168 Solubility at 37° C.", "setting": "[3]; FeSSIF (pH 4.90), 2 Hr.", "value": "ND (ND = Not Detected)"}, {"measurement": "CCX168 Solubility at 37° C.", "setting": "[3]; FeSSIF (pH 4.90), 4 Hr.", "value": "ND (ND = Not Detected)"}, {"measurement": "solubility at 0.5 h", "setting": "[3]; Fed State Simulated Intestinal Fluid (FeSSIF), 37 °C, pH 4.9, fessif, thermodynamic from solid, FeSSIF (pH 4.90), 0.5 Hr., read-out: CCX168 Solubility at 37° C.", "value": "< 3.1", "unit": "µg/mL"}]}
